The values that follow come from the METLIN SMRT retention time set (Domingo-Almenara et al. 2019).

The nature of the series: gradient 5% acetonitrile 3 min, to 50% in 2 min, to 85% in 15 min, held 3 min, 100 µL/min. The conditions noted are these: column: Zorbax Extend-C18 2.1 x 50 mm; eluents: water / acetonitrile, 0.1% formic acid. In short, it runs like this:
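Retention times of pure standards were taken from adduct peaks that were selected by computer and manually inspected. Over 3 months, mixtures of ~100 molecules were run by HPLC–quadrupole time-of-flight mass spectrometry in positive and negative ionization mode. The Zorbax Extend-C18 column (2.1 × 50 mm, 1.8 μm) ran at 100 μL/min in water and acetonitrile, each containing 0.1% formic acid, with 40 μL dead volume and 900 μL dwell volume.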
Regarding `O=C(C1CCN(c2nccnc2Sc2ccccc2)CC1)N1CCN(c2ccccn2)CC1`, the RP-LC retention time was found to be 682 s. The result for `Cc1nc2cc(-c3noc(-c4ccccn4)n3)ccc2n(C2CCCC2)c1=O` reads 991 s; that for `CN(C)CCNC(=O)CN1C(=O)C2CCCCN2c2ccc(S(=O)(=O)N3CCCC3)cc21` (stereo not given), 775 s. `Cc1cccc2c(C(=O)O)cc(N3CCN(C)CC3)nc12` came in with an RP-LC retention time of 596 s. The result for `Cc1csc(NC(=O)CSc2nn3c(=O)c(C)nnc3s2)n1` reads 613 s; that for `COc1cc(NC(=O)N2CCC(n3c(C(F)(F)F)nc4cccnc43)CC2)cc(OC)c1`, 895 s; that for `O=C(O)C1=CCCN(CCON=C(c2ccccc2)c2ccccc2)C1`, 766 s.

The molecule `CCN(CC)C(=O)Cn1cc(C(=O)C(=O)N(C)Cc2ccccc2)c2ccccc21` registered an RP-LC retention time of 890 s. The same measure for `Cc1cn(C)nc1C(=O)Nc1nnc(-c2cccs2)o1`: 647 s; for `CCCc1nc2cccnc2n1C1CCN(C(=O)Nc2ccc3c(c2)OCCO3)C1` (stereo not given): 600 s. The same measure for `CCN1CCN(C(=O)C2CCCN(S(=O)(=O)c3ccc(OC)c(C)c3)C2)CC1` (stereo not given): 636 s. Molecule `Cc1nnc2ccc(-c3noc(-c4cccc5[nH]ccc45)n3)cn12` returned an RP-LC retention time of 843 s. The result for `CC[C@H](C)NC(=O)Cc1nnc(-c2ccc(OC)cc2)o1` reads 707 s. The result for `CCN1CCN(C(=O)CN2C(=O)CSc3ccc(C(=O)N4CCCCC4)cc32)CC1` reads 608 s; that for `COc1ccc(Cl)cc1NC(=O)N1CCCC(C)(C(=O)NCc2ccc(C)cc2)C1` (stereo not given), 982 s.

As to `CCc1ccc(-n2ncc3c(=O)n(Cc4nc(-c5cc(OC)c(OC)c(OC)c5)no4)cnc32)cc1`, the RP-LC retention time came out at 1080 s. Consider `O=S(=O)(c1ccc(F)cc1F)N1CCCC(Cn2c(C3CC3)nc3cccnc32)C1` (stereo not given), for which the RP-LC retention time was found to be 766 s. `Cn1cc(C(=O)NC2CCCCCC2)c2nn(-c3ccccc3)c(=O)c-2c1`: the RP-LC retention time turned out to be 995 s. The same measure for `NC(=O)CSc1nc(-c2ccccc2)c(NC(=O)c2cc3ccccc3o2)s1`: 797 s; for `COc1ccc(CCNC(=O)NCCS(=O)(=O)c2c(C)n(C)c3ccccc23)cc1`: 740 s; for `Cc1ccc(NC(=O)CCC(=O)O)c(C)c1`: 627 s. `CCN1CCC2(CC1)OC(=O)C(C)=C2C(=O)NCc1ccc(C)cc1` returned an RP-LC retention time of 558 s. The result for `Cn1cccc1-c1cc2n(n1)CCCN2C(=O)CCC(=O)NCc1ccc(F)cc1` reads 717 s. The same measure for `CC1CNc2c(cccc2S(=O)(=O)N[C@@H](CCCN=C(N)N)C(=O)N2CC[C@@H](C)C[C@@H]2C(=O)O)C1` (stereo not given in full): 822 s; for `CCn1c(-c2nonc2N)nc2c(C#CC(C)(C)O)ncc(OC[C@H]3CCCNC3)c21`: 645 s. The same measure for `COc1ccc(-c2nnc(-c3cccnc3NCCCN3CCCC3=O)o2)cc1`: 746 s; for `Cn1c(C2CCN(C(=O)c3ccsc3)C2)nc2cccnc21` (stereo not given): 606 s; for `Cc1ccc(C(=O)N2CCc3[nH]nc(C(=O)N(C)C)c3C2)cc1F`: 625 s. `CCOc1ccc(-c2noc(Cn3nc(-c4ccc(C)cc4)ccc3=O)n2)cc1`: the RP-LC retention time turned out to be 1160 s.

For `CC(C)NC(=O)Cn1cccc(-c2nc(-c3ccc(F)cc3)no2)c1=O`, the RP-LC retention time worked out at 735 s. For `CCNC(=O)c1cc(C)nc2ccc(CC)cc12`, the RP-LC retention time stood at 582 s. In the case of `Cc1ccc(NS(=O)(=O)c2cn(CC(C)C)c3ncccc23)c(C)c1`, the RP-LC retention time came to 1050 s. Regarding `COCC(C)(O)CNC(=O)COc1ccccc1OC` (stereo not given), the RP-LC retention time turned out to be 608 s. The same measure for `CN1C(=O)c2cccnc2Sc2cc(NC(=O)c3ccc(OC(F)(F)F)cc3)ccc21`: 936 s; for `COc1ccc2c(C)c(CCC(=O)N[C@H](C(=O)O)c3ccccc3)c(=O)oc2c1OC`: 719 s; for `COCCNC(=O)C1(C)Cn2nc(-c3ccco3)cc2C(=O)N1c1ccc(OC)c(Cl)c1` (stereo not given): 776 s. The same measure for `CCCNC(=O)C1CCN(Cc2cc3ccccc3n2Cc2ccccc2Cl)CC1`: 736 s; for `CCn1c(=O)c(N2CCCC(C(=O)NCc3cc(Br)ccc3OC)C2)nc2ccccc21` (stereo not given): 1140 s; for `CCOc1ccc(-c2nc(-c3cccc(-c4ccnn4C)c3)no2)cc1`: 1230 s. The result for `CCSc1nnc(-c2nn(C)c3c2CN(C(=O)c2ccccc2)CC3)n1C` reads 716 s; that for `Cc1c(-c2noc(-c3ccc(F)cc3)n2)nnn1Cc1ccccc1`, 1060 s. In the case of `CC1=C(c2ccc(C)cc2)S(=O)(=O)N=C1N1CCCN(C(=O)c2cccnc2)CC1`, the RP-LC retention time was found to be 687 s.

Turning to `CCCNC(=O)C1CCCN(c2ccc(SCC(=O)NCc3ccc(C)c(C)c3)nn2)C1` (stereo not given), the RP-LC retention time was determined as 698 s.

Take `CCC(=O)Nc1nc(-c2ccc3c(c2)N(C)C(=O)C(C)O3)cs1` (stereo not given): the RP-LC retention time stood at 801 s. The same measure for `Cc1nc(-c2ccc(N3CCN(C(=O)c4ccc(Cl)cc4)CC3)nc2)sc1C`: 946 s. The same measure for `CC(C)N1CCn2c(nc3cc(C(=O)NCc4ccc(Br)cc4)ccc32)C1=O`: 761 s; for `Cc1ccc(-n2c(N3CCC(C(=O)NCC(C)C)CC3)nc3ccsc3c2=O)cc1`: 821 s; for `Cc1c(Cl)cccc1S(=O)(=O)N1CCCC1c1nc(-c2ccc(F)cc2)no1` (stereo not given): 1220 s. The same measure for `CCN1CCCCc2cc(C(=O)NCCN3CCCCC3C)sc21` (stereo not given): 698 s. Consider `O=C(Oc1ccc[nH]c1=O)c1cccc(Cl)c1`, for which the RP-LC retention time was found to be 756 s. The result for `COc1ccccc1C(=O)N1CCN(c2ccc(-c3nc(C)c(C)s3)cn2)CC1` reads 851 s. The same measure for `Cc1ccc(CNC(=O)c2[nH]c3cc(C)sc3c2CN2CCOCC2)cc1`: 735 s; for `CC1=C(C(=O)Nc2ccc(F)cc2C)C2(CCCCCC2)OC1=O`: 972 s; for `O=C(NCC1CN(c2ccccc2)C(=O)O1)Nc1ccccc1Cl` (stereo not given): 776 s. The result for `Cc1cc(C)c2c(CN3CCN(c4ccccn4)CC3)cc(=O)oc2c1` reads 672 s; that for `COc1ccc2c(c1)C1(CCN(S(=O)(=O)c3ccccc3)C1)C(=O)N2` (stereo not given), 771 s; that for `Cc1csc(-c2cc(S(=O)(=O)NC(C)C)cn2CC(=O)N2CCCCC2)n1`, 873 s.

As for `CCCc1cc(N2CCN(C(=O)c3cccs3)CC2)nc2nncn12`, the RP-LC retention time is 601 s. For the molecule `CCC(=O)Nc1nc2cc(NC(=O)C3CCN(S(=O)(=O)N4CCOCC4)CC3)ccc2s1`, the RP-LC retention time is 719 s. The result for `COc1ccc(NC(=O)N2CCN(c3ccc(=O)n(-c4ccc(C)c(C)c4)n3)CC2)cc1OC` reads 764 s; that for `CC(C)n1c(=O)n(CC(=O)NC2CCCc3ccccc32)c2cc(S(=O)(=O)N3CCCC3)ccc21` (stereo not given), 927 s. In turn, `Cc1cc(C)n2c(Nc3ccc4c(c3)OCCO4)c(-c3cccc(Br)c3)nc2n1` showed an RP-LC retention time of 759 s.

Regarding `CN(C)c1cccc(C(=O)NC2CCN(c3ccc(F)cc3)C2=O)c1` (stereo not given), the RP-LC retention time was found to be 705 s. `COc1ccc(-c2cc3n(n2)CCCN(C(=O)c2cccn2C)C3)cc1` displayed an RP-LC retention time of 807 s.

Turning to `c1ccc(CSc2nc3ncncc3[nH]2)cc1`, the RP-LC retention time is 719 s.

For the molecule `Cc1nc2cc(-c3noc(-c4ccc(Br)o4)n3)ccc2o1`, the RP-LC retention time was determined as 1090 s. Turning to `CC(C)(C)c1cc(Br)ccc1OCC(=O)Nc1ncn[nH]1`, the RP-LC retention time is 797 s.

`Cc1cccc(S(=O)(=O)N2CCC(n3cnnc3C3CC3)CC2)c1`: the RP-LC retention time worked out at 713 s. The result for `Cc1cc(C(=O)Nc2ccc(Cl)cc2)nc2ccnn12` reads 1010 s; that for `CCOCCCNC(=O)N1CCC(c2noc(-c3ccncc3)n2)C1` (stereo not given), 643 s; that for `COc1cc(OC)c(NC(=O)Nc2c(-c3ccc(F)cc3)nc3ccccn23)cc1Cl`, 708 s. The result for `Cc1ccc(NC(=O)Cn2nc(N3CCOCC3)c3ccccc3c2=O)cc1Cl` reads 780 s. The same measure for `O=C(CCc1c(-c2ccccc2)nc2ccccn12)NCc1cccc(Cl)c1`: 681 s; for `Cc1ccc(-c2noc(CSc3nc4cc5c(cc4c(=O)n3CC3CCCO3)OCO5)n2)cc1` (stereo not given): 1160 s. Regarding `CCCN(CCC)CCCNC(=O)C1CCCN(c2ncc(-c3cccc(F)c3)cn2)C1` (stereo not given), the RP-LC retention time amounted to 747 s. The same measure for `CCN(CC)C(=O)c1cc2c(s1)N(CC1CC1)CCCC2`: 1180 s; for `COc1ccc(-c2nc(NCCCN3CCOCC3)c3ccccc3n2)cc1`: 557 s; for `O=C(Cn1ccn2nc(-c3ccc(F)cc3)c(CO)c2c1=O)Nc1ccc(Br)cc1`: 891 s.

The molecule `O=C(Cc1nnc2cc(-c3nc(C4CC4)no3)ccn12)NC1CCCCCC1` had an RP-LC retention time of 741 s. The same measure for `CCc1noc(-c2ccc(-n3cnc(C(=O)NC4CCCCC4)c3)nc2)n1`: 1110 s.
